# Results: PMC7751407, “Novel oxindole/benzofuran hybrids as potential dual CDK2/GSK-3β inhibitors targeting breast cancer: design, synthesis, biological evaluation, and in silico studies” (Journal of Enzyme Inhibition and Medicinal Chemistry, 2020)
# Key:
# MCF-7 = assay: MTT anti-proliferative assay, MCF-7 breast cancer cells; type: cell-based; settings: Homo sapiens, MCF7, 48 h exposure, mean ± SD of three separate experiments
# Protocol: (§1) 1. Anti-proliferative activity toward human breast cell lines
# (§2) The two examined human breast cancer cell lines (T-47D and MCF-7) have been obtained from American Type Culture Collection (ATCC). Cells lines were maintained as monolayers in Dulbecco’s Modified Eagle’s Medium (DMEM) supplemented with 10% FBS, 2 mM L-glutamine, 100 U/ml penicillin and 100µg/ml streptomycin sulfate. Cells were sub-cultured with trypsine /EDTA solution, counted with haemocytometer and plated onto 96-well plates (5000 cells/well) and left overnight to form a semi-confluent monolayer. Cell monolayers were treated in quadrates with vehicle (DMSO, 0.1% v/v), test samples or Adriamycin as positive control for an exposure time of 48 h. At the end of exposure, MTT solution in PBS (5 mg/ml) was then added to all well including no cell blank and left to incubate for 90 min. The formation of formazan crystals were visually confirmed using phase contract microscopy. DMSO (100 µl/well) was added to dissolve the formazan crystals with shaking for 10 min after which the absorbance was read at 590 nm against no cell blanks on a FLuo Star Optima microplate reader (BMG technologies, Germany).
# (§3) Cell proliferation was calculated comparing the OD values of the DMSO control wells and those of the samples represented as % proliferation to the control. Dose-response experiment was performed on samples producing > or =50% loss of cell proliferation using five serial 2-fold […]
# (§4) IC50 values (concentration of sample causing 50% loss of cell proliferation of the vehicle control) were calculated using non-linear regression curve fitting of the dose response plots on GraphPad Prism V.6.0 software. […]
# MCF-7 cells [1] = assay: Cell cycle analysis by flow cytometry (PI stain) in MCF-7 cells; type: cell-based, human; settings: 24 h, at IC50 concentration
# Protocol: Compounds showing promising antiproliferative as well as kinase inhibitory activity 5d, 5e and 5f were further investigated for their influence on the cell cycle progression by flow cytometry analysis using propidium iodide (PI) stain. Cell cycle parameters were compared for the breast cancer MCF-7 cells with DMSO as control and after treatment with the compounds of interest and incubation for 24 h, and the results were presented in Figure 5 and Table 3. […]
# concentration), and then cells were washed twice with ice-cold phosphate buffered saline (PBS).
# Subsequently, the treated cells were collected by centrifugation, fixed in ice-cold 70% (v/v) ethanol, washed with PBS, re-suspended with 100 μg/mL RNase, stained with 40 μg/mL PI, and analyzed by flow cytometry using FACS Calibur (Becton Dickinson, BD, Franklin Lakes, NJ,
# GSK-3β = target: T1, GSK-3β (Homo sapiens, UniProt P49841); assay: GSK-3β kinase inhibition (GSK3β Assay Kit, BPS Biosciences); type: biochemical; settings: mean ± SD of three separate experiments
# T1 construct: purchased BPS Biosciences, San Diego, CA, USA 79700
# T1 sequence (P49841 whole entry): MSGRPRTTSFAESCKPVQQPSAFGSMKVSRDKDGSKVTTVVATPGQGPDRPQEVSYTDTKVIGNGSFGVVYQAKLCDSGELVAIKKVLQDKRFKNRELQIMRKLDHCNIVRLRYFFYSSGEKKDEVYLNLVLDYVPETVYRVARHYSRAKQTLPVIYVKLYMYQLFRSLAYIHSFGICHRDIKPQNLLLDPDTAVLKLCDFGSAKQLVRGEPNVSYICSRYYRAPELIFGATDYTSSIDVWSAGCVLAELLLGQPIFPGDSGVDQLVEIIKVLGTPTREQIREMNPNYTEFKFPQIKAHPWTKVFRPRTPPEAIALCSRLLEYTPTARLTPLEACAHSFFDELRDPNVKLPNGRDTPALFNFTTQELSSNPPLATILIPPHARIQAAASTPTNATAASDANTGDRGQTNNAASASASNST
# Protocol: (§5) 2. CDK2/GSK-3β Kinase Inhibitory Activities
# (§6) The CDK2 and GSK-3β inhibitory activities were determined for hybrids 5a-g using the CDK2
# (§7) Kinase Enzyme System (catalog No. V2971) (Promega, Milan, Italy), and GSK3β Assay Kit
# T-47D = assay: MTT anti-proliferative assay, T-47D breast cancer cells; type: cell-based; settings: Homo sapiens, T47D, 48 h exposure, mean ± SD of three separate experiments
# Protocol: as §1, §2, §3, §4
# MCF-7 cells [2] = assay: Annexin V-FITC/PI dual staining apoptosis assay in MCF-7 cells; type: cell-based, human; settings: at IC50 concentration
# Protocol: To investigate further the effect of the promising compounds 5d, 5e, and 5f on cell apoptosis, Annexin V-FITC/propidium iodide dual staining assay was performed according to the reported method. The morphological markers of apoptosis in the breast cancer MCF-7 cell line were examined before and after treatment with the compounds of interest. Apoptosis assay depends on the translocation of the phosphatidylserine (PS) phospholipid to the cell surface in cells undergoing apoptosis which can be easily detected by staining with the fluorescent conjugate of annexin V followed by flow cytometry analysis. Simultaneously, MCF-7 cells were stained with propidium iodide (PI) which could enter cells with damaged plasma membranes only. This enables the discrimination between early apoptotic cells (positive for PS, but negative for PI) from late apoptotic and necrotic cells (positive for both PS and PI). […]
# 4. Annexin V-FITC Apoptosis Assay
# Phosphatidylserine externalization was assayed using Annexin V-FITC/PI apoptosis detection kit (BD Biosciences, USA) according to the manufacturer’s instructions. Breast cancer MCF-7 cells were cultured to a monolayer then treated with hybrids (5d, 5e and 5f) at their IC50 concentration. Briefly, cells were then harvested via trypsinization, and rinsed twice in PBS followed by binding buffer. Moreover, cells were re-suspended in 100 μL of binding buffer with the addition of 1 μL of FITC-Annexin V followed by an incubation period of 30 min at 4 °C. Cells were then rinsed in binding buffer and resuspended in 150 μL of binding buffer with the addition of 1 μL of DAPI (1 μg/μL in PBS). Cells were then analyzed using the flow cytometer BD FACS Canto II and the results were interpreted with FlowJo7.6.4 software (Tree Star, Ashland, OR,
# MCF-10A = assay: MTT cytotoxicity towards non-tumorigenic breast cells MCF-10A; type: cell-based, human
# From the text: In order to investigate their selectivity on cancer cells, hybrids 5d, 5e and 5f, endowed with dual growth inhibitory action against MCF-7 and T-47D cells, were assesses for their cytotoxic action towards the non-tumorigenic breast cells (MCF-10A), via the MTT assay. The obtained IC50s and the calculated mean tumour selectivity index (S.I.); IC50 for MCF-10A/IC50 average for (MCF-7 and T-47D) have been presented in Table 5.
# as §1, §2
# Cell proliferation was calculated comparing the OD values of the DMSO control wells and those of the samples represented as % proliferation to the control. Dose-response experiment was performed on samples producing > or =50% loss of cell proliferation using five serial 2-fold dilutions (50, 25, 12.5, 6.25 and 3.125 µM) of the sample. IC50 values (concentration of sample causing 50% loss of cell proliferation of the vehicle control) were calculated using non-linear regression curve fitting of the dose response plots on GraphPad Prism V.6.0 software. […]
# CDK2 = target: T2, CDK2 (Homo sapiens, UniProt P24941); assay: CDK2 kinase inhibition (CDK2 Kinase Enzyme System, Promega); type: biochemical; settings: mean ± SD of three separate experiments
# T2 construct: purchased Promega, Milan, Italy V2971
# Protocol: as §5, §6, §7
structure (smiles),measurement,setting,value
"COc1ccc2c(c1)C(=NNC(=O)c1cc3cc(Br)ccc3o1)C(=O)N2 [5f, 5-Bromo-N'-(5-methoxy-2-oxoindolin-3-ylidene)benzofuran-2-carbohydrazide]",IC50,MCF-7,2.27 ± 0.06 µM
same,melting point,,> 300 °C
same,%Sub-G1,MCF-7 cells [1]; control 1.29,22.02%
same,%G2/M,MCF-7 cells [1]; control 11.3,37.82%
same,%S,MCF-7 cells [1]; control 33.82,17.88%
same,%G0-G1,MCF-7 cells [1]; control 53.59,22.28%
same,IC50,GSK-3β,0.0401 ± 0.0022 µM
same,IC50,T-47D,7.8 ± 0.25 µM
same,Late Apoptosis (Upper Right %),MCF-7 cells [2]; control 0.19,22.16%
same,Early Apoptosis (Lower Right %),MCF-7 cells [2]; control 0.63,3.94%
same,Total apoptosis (L.R % + U.R %),MCF-7 cells [2]; control 0.82,26.10%
same,Necrosis,"MCF-7 cells [2]; upper left quadrant, control 0.49",2.14%
same,IC50,"MCF-10A; Homo sapiens, MCF-10A, MTT assay, non-tumorigenic breast cell line",40 ± 1.42 µM
same,Mean tumour selectivity index (S.I.),MCF-10A; IC50 for MCF-10A/IC50 average for (MCF-7 and T-47D),7.9
same,IC50,CDK2,0.0528 ± 0.0029 µM
